In patent publication US10131650B2, “Alpha-helix analog having triazine-piperazine backbone and method for preparing same” (POSCO, priority 2014, dated 2018):

Tests used:
[1] = target: T1, interaction between MCL-1 and BH3 (Homo sapiens, UniProt Q07820); experiment: Competitive fluorescence polarization assay with FITC-MCL-1-BH3 peptide; format: binding; conditions: for activity in competitive fluorescence polarization assay (MCL-1/BH3): result in words; for Ki: competitive fluorescence polarization, FITC-MCL-1-BH3 50 nM, 0.8 μM MCL-1ΔNΔC, read-out: Ki, dissociation of the interaction between MCL-1 and BH-3
T1 construct: GST (cleaved yes); made in house; host or cells: E. coli BL21(DE3)
T1 sequence (Q07820 172-320): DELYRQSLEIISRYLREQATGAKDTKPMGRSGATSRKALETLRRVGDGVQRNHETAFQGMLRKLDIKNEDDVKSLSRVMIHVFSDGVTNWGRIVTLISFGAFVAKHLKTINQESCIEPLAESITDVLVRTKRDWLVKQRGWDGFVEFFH
Experimental: MCL-1 protein was incubated with sulfo-NHS-Biotin (Thermo Scientific) in 0.1 M NaHCO3 buffer (pH 8.3) for 45 minutes at room temperature to biotinylate the MCL-1 protein (because MCL-1ΔNΔC protein used in the test have several Lysine residues being exposed in a surface and being apart from the active site of BH3 binding, the protein is biotinylated with modification). The reaction was quenched with addition of 1.5 M hydroxylamine. The labeled protein was separated with the dialysis with 1×PBS buffer containing 0.05% Tween20 (pH 7.4). The degree of labeling was determined according to the manufacturer's instructions (degree of biotinylation: 1.05 biotin per protein).
Fluorescence polarization values were measured with a SpectraMax M5 Multi-Mode Microplate Reader (Molecular Devices). […] KD was calculated with GraphPad Prism 4 software. […] N-terminal labeled FITC-MCL-1-BH3 peptide (FITC-Abu-[…]-NH2) was synthesized and purified with HPLC. The compounds was incubated at various concentrations with FITC-MCL-1-BH3 (50 nM) and 0.8 μM MCL-1ΔNΔC in binding buffer for 30 minutes and then was added by FITC-MCL-1-BH3 (50 nM). After incubated with addition of various concentrations of compounds, the fluorescence polarization was measured. Ki was calculated by using the conventional method (Nikolovska-Coleska, Z. et al, Anal. Biochem. 2004, 332, 261).

[2] = target: T2, MCL-1/BAK interaction in Jurkat T cells (Homo sapiens, UniProt Q07820); experiment: Co-immunoprecipitation and Western blotting; format: cell-based; conditions: 2.5 hours, MCL-1 immunoprecipitation, Western blot
T2 construct: endogenous in cells; host or cells: Jurkat T cells
T2 sequence (Q07820 whole entry): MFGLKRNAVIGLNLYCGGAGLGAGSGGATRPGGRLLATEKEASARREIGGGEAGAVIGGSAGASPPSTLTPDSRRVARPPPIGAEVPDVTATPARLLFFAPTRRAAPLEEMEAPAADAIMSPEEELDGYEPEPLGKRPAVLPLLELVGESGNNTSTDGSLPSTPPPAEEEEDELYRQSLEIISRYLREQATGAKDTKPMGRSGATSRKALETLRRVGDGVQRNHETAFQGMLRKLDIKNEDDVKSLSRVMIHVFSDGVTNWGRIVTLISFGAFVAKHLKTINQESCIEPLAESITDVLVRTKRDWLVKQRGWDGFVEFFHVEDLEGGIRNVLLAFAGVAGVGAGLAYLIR
Experimental: In Opti-MEM medium, Jurkat T cells (1×10^7 cells) were treated with DMSO or compound. Cells were harvested after culturing for 2.5 hours, washed once with PBS, and lysed on ice using lysis buffer (50 mM Tris-HCl, pH 7.4, 150 mM NaCl, 1 mM EDTA, 1 mM DTT, 0.5% NP-40 and complete protease inhibitor tablet). Cell lysates were incubated with anti-MCL-1 antibody (S-19, Santa Cruz) overnight at 4° C. and incubated with protein A/G agarose for 1 hour. The beads were precipitated, washed at three times with lysis buffer, and the denatured protein was subjected to western blotting using anti-BAK (Cell Signaling) and anti-MCL-1 antibody. Western blot analysis was performed on an Immobilon-FL (Millipore) PVDF membrane. Goat anti-Rabbit IRDye 680 antibody (Licor) was used as a secondary antibody and the signal was analyzed with Odyssey 3.0 software.

[3] = Water solubility in phosphate buffered saline; format: physicochemical; conditions: aqueous buffer; phosphate buffered saline at pH 7.4
Text: As a result of analyzing the three peptoids, the selected compounds had the following structures of 9a (Chemical formula 4), 9b (Chemical formula 5) and 9c (Chemical formula 6), respectively.

[4] = target: α-synuclein disease-associated mutant A53T (Homo sapiens, UniProt P37840, A53T); experiment: Thioflavin-T aggregation assay; format: biochemical; conditions: 30 hours, 37° C.
A549 cells = experiment: Confocal microscopy, cell permeation; format: cell-based; conditions: fluorescence-labeled compound
Experimental: A549 cells (5×10^3 cells) were plated MEM medium containing 10% FBS of 96-well plates. Cells were maintained for 24 hours, washed with PBS, and then […] of fluorescence-labeled compound or 5 (6)-carboxyfluorescein was treated in Opti-MEM medium and incubated for 2.5 hours. The cells were washed with 1×PBS (2 times) and fluorescence images were analyzed.

Jurkat leukemia T cells = experiment: Cell viability assay; format: cell-based; conditions: 24 hours
Experimental: (§1) Jurkat T cells were cultured in RPMI 1640 medium containing 10% FBS, and 4×10^4 Jurkat T cells were seeded in 100 μL Opti-MEM medium (Invitrogen) of 96-well plate. WS-1 cells were cultured in MEM medium containing 10% FBS and 2×10^4 WS-1 cells were seeded in 100 μL MEM medium containing 10% FBS of 96-well plate for 24 hours, washed with PBS, and cultured in 100 μL Opti-MEM. The cells were maintained at serum-starved state for 6 hours and treated with the compound. After culturing for 24 hours, the cell viability was assayed using the CellTiter 96 AQueous Non-Radioactive Cell Proliferation Assay kit (Promega) according to the manufacturer's instructions.

[5] = test system: WS-1 human fibroblast cells; experiment: Cell viability assay; format: cell-based; conditions: 24 hours
Experimental: as §1

[6] = test system: U266 cells (multiple myeloma); experiment: Cell viability assay; format: cell-based; conditions: 24 hours
[7] = test system: HEK293 embryonic kidney cells; experiment: Cell viability assay; format: cell-based; conditions: 24 hours
U266 cells = experiment: Caspase 3/7 assay; format: cell-based; conditions: 16 hours
α-synuclein = target: T3, α-synuclein (Homo sapiens, UniProt P37840); experiment: Fluorescence polarization assay, binding to wild type α-synuclein; conditions: result in words
T3 construct: GST (cleaved yes); made in house; host or cells: E. coli Rosetta 2 (DE3)

Bcl-xL1-212 = Bcl-xL1-212 (Homo sapiens, UniProt Q07817); experiment: Competitive fluorescence polarization assay, selectivity; format: binding; conditions: competitive FP
Bcl-xL1-212, sequence (Q07817 1-212): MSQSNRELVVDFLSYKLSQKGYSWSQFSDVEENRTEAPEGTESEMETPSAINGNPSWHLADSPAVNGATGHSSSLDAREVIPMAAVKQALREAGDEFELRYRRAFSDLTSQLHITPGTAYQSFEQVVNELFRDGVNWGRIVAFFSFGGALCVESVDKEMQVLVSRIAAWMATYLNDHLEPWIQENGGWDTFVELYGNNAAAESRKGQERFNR
Text: Because BH3-binding pocket of MCL-1 is similar to BH3-binding pocket of Bcl-2 family proteins such as Bcl-xL, the present inventors tested the selectivity of PPT-31.

Mcl-1172-320 = Mcl-1172-320 (Homo sapiens, UniProt Q07820); experiment: Competitive fluorescence polarization assay with labeled Bak-BH3 peptide
Mcl-1172-320, sequence (Q07820 172-320): as the sequence (Q07820 172-320) above
Experimental: The cell was treated with 1 mM IPTG (isopropyl β-D-1-thiogalactopyranoside) to induce the protein expression. The cell pellet was resuspended with lysis buffer (20 mM Tris, pH 7.2, 250 mM NaCl, complete protease tablet (Roche)) and sonicated to be lysis. After centrifuging, the cell lysate was applied to a 5-mL GSTrap HP column (GE Life Sciences) and performed according to the manufacturer's instructions.
Various concentrations of phenyl-piperazine-triazine in 40 μL of buffer were added to the mixture. After incubating for 15 minutes, the Fluorescence polarization (mP units) was measured with Infinite®200 PRO Microplate Reader (Tecan).

In the case of `CCNc1nc(N)nc(N2CCN(c3nc(NCC)nc(NCC)n3)CC2)n1` [9-nc, 6-(4-(4-amino-6-(ethylamino)-1,3,5-triazin-2-yl)piperazin-1-yl)-N^2,N^4-diethyl-1,3,5-triazine-2,4-diamine, reference compound], the “activity in competitive fluorescence polarization assay (MCL-1/BH3)” value [1] is reported as “did not bind” and the “inhibition of MCL-1/BAK protein interaction in cells” value (“inhibition … in cells” for short) [2] is reported as “did not inhibit”.

With `CCNc1nc(NCc2ccccc2)nc(N2CCN(c3nc(N)nc(NCc4ccc5c(c4)OCO5)n3)CC2Cc2ccccc2)n1` (stereo not drawn) [Chemical formula 4, 6-(4-(4-amino-6-((benzo[d][1,3]dioxol-5-ylmethyl)amino)-1,3,5-triazin-2-yl)-2-benzylpiperazin-1-yl)-N^2-benzyl-N^4-ethyl-1,3,5-triazine-2,4-diamine] the solubility [3] was ~100 µg/mL, the “activity in competitive fluorescence polarization assay (MCL-1/BH3)” value [1] was “weak activity” and the “aggregation of α-synuclein (onset / inhibition)” value [4] was “had not inhibition of aggregation”.

For `CCCN(CC1CC1)c1nc(N)nc(N2CCN(c3nc(NCC)nc(NCc4ccc5c(c4)OCO5)n3)C(Cc3ccccc3)C2)n1` (stereo not drawn) [Chemical formula 5, 6-(4-(4-amino-6-((cyclopropylmethyl)(propyl)amino)-1,3,5-triazin-2-yl)-2-benzylpiperazin-1-yl)-N^2-(benzo[d][1,3]dioxol-5-ylmethyl)-N^4-ethyl-1,3,5-triazine-2,4-diamine], the solubility [3] was ~100 µg/mL, the Ki [1] was 17.2 µM and the “inhibition … in cells” value [2] was “effectively inhibit”.

In the case of `CCNc1nc(NCCc2ccc(O)cc2)nc(N2CCN(c3nc(N)nc(Nc4ccc(Oc5ccccc5)cc4)n3)CC2Cc2ccccc2)n1` (stereo not drawn) [Chemical formula 6, 4-(2-((4-(4-(4-amino-6-((4-phenoxyphenyl)amino)-1,3,5-triazin-2-yl)-2-benzylpiperazin-1-yl)-6-(ethylamino)-1,3,5-triazin-2-yl)amino)ethyl)phenol], the solubility [3] is reported as ~100 µg/mL, the Ki [1] is reported as 9.3 µM and the “inhibition … in cells” value [2] is reported as “inhibited”. The cell permeability (A549 cells) was “permeable to cells”, the “survival of cancer cells” value (Jurkat leukemia T cells) was “effectively inhibited the survival” and the “survival of normal cells” value [5] was “did not affect survival”. For the same compound, the “survival of cancer cells” value [6] was “effectively inhibited the survival”, the “survival of normal cells” value [7] was “did not affect survival” and the “caspase 3/7 activity” value (U266 cells) was “increased the caspase activity in a concentration-dependent manner”. The “binding to α-synuclein” value (α-synuclein) was “showed affinity”.

For `CCNc1nc(NCc2ccccc2)nc(N2CCN(c3ccc(C(N)=O)cc3NCc3ccccc3)CC2Cc2ccccc2)n1` (stereo not drawn) [PPT-31, 2-{4-(2-aminobenzyl-4-carbamoylphenyl)-2-benzyl-piperazine}-4-aminoethyl-6-aminobenzyl-[1,3,5]triazine], the “inhibition of the interaction between Bcl-xL1-212 and BH3” value (Bcl-xL1-212) was “did not inhibit”, the Ki (Mcl-1172-320) was 7.3 µM and the “inhibitory effect on the Mcl-1/BH3 interaction” value (Mcl-1172-320; at 10 μM and 50 μM, among 36 library compounds) was “highest inhibitory effect”.
